Where two headings read alike, the source gives them in different places.
Assays:
AIA rats [1] = conditions: for ESR: day 42, read at 15 min, ± SD
[2] = tested on: MCD diet induced NASH mice; test: MCD diet induced NASH mice: body and liver weight, liver histology, serum and liver biomarkers; assay type: in vivo, C57Bl/6 mice; conditions: for Ballooning (histological score) / Inflammation (histological score) / Steatosis (histological score): MCD diet induced NASH mice, n = 6-8
Procedure: Male wild-type (WT) mice C57Bl/6 were fed either MCS chow diet (Trophic Animal Feed High-tech Co., Ltd, China 20, #TP 3005GS); MCD diet (Trophic Animal Feed High-tech Co., Ltd, China, #TP 3005G) for 8 weeks. Animals were randomly divided into four groups (n=10): 1) controls, fed a standard control MCS diet; 2) […] fed a high-fat MCD diet; 3) rats fed the MCD diet treated with Silybin (150 mg/kg, oral) and 4) rats fed the MCD diet treated with Silybin (300 mg/kg, oral). Silybin was dissolved with solvent of 35% PEG400: 15% Cremophor EL: 5% ethanol: 45% saline. Body weight was intermittently monitored during the diet-induction period and every two or three days during the intervention period.
At the end of the 8 weeks, mice were sacrificed under ether anesthesia. The liver were immediately removed and weighed. A large portion of liver was snap-frozen in the liquid N2 with remaining tissue was fixed in 10% buffer formalin, processed and embedded in paraffin for histological examination after H&E staining. For evaluation of steatohepatitis, the level of ALT, AST, TG, and TC were determined according to manufacturer's instructions with commercial kits. Moreover, histological assessment and scoring according to standardized criteria were carried out by a pathologist blinded to the study (Kleiner, D. E., et al., Hepatology, 2005, 41(6): p. 1313-21). The cytokines levels in serum were measured using commercially available ELISA kits including TNF-α, and IL-6 as well as SOD.

AIA rats [3] = test: Radiological and histopathological examination of hind paws / ankle joints of AIA rats; assay type: in vivo, Sprague-Dawley (SD) rats
Procedure: Disease severity and progression were evaluated by measurements of both hind paw volumes with a plethysmometer chamber (Yiyan technology, Jinan, China) and body weight with a 0.1 g precision balance (Sartorius AG, Göttingen, Germany) every two or three days after arthritis induction. For evaluation the arthritic scoring, the lesions of four paws of each rat (i.e., the arthritic signs) were graded by two separate investigators with a semi-quantitative scale: 0 (normal), 4-8 (mild changes), 8-12 (moderate changes), and 12-16 (severe changes) (van Eden W., et. al., J. E. Coligan, Editor. 2001, John Wiley: New York. p. 1-11). Erythrocyte sedimentation rate (ESR) was determined with ICSH (International Council for Standardization in Hematology) selected method with little modifications at day 42. Briefly, 120 μl of blood sample was taken directly and put into 30 μl of 0.109 mol/L sodium citrate, mixed well, and then transferred into a 1.0 mm×100 mm capillary tube (West China Medical University, ChengDu, China). The tubes were held obliquely at an angle of […] and the erythrocyte sedimentation rate was recorded at 15 min. The cytokines levels including IL-1β, TNF-α, IL-17, IL-33, MMP-9, TIMP-1 and PGE2 in serum were measured using commercially available ELISA kits according to the manufacturers instructions. At the end of the experiments, rat knee images were measured (mean of three readings per knee, Meinaite digital calliper, ShangHai, China) using a IVIS Lumina XRMS Series (PerkinElmer, America) (Esser, R. E., et al., Arthritis Rheum, 1995, 38(1): p. 129-38).
For histopathological assessment, arthritic paws were collected on day 42 after X-ray check, fixed with 10% phosphate buffered saline (PBS) buffered formalin, and decalcified for 3 days in formic acid. Sections from paraffin-embedded tissue were stained with hematoxylin and eosin (H&E). The obtained plasma was stored in −70° C. for metabolomic studies. The relative organ weight ratios (such as liver index, spleen index, kidney index, lung index) were calculated by dividing the weight of each organ with the body weight.

AIA rats [4] = test: Assessment of liver abnormality and lipid profile in AIA model; assay type: in vivo, Sprague-Dawley (SD) rats
Procedure: Serum ALT, AST, ALP, GGT and total bilirubin were measured by automatic biochemical analyzer (Toshiba Corporation, Tokyo, Japan). Lipids profile including TG, TC, HDL-C, LDL-C/vLDL-C and free fatty acids were measured in the serum. After animals were sacrificed, tissues of liver were fixed in 10% formalin solution, cleared in xylene, embedded in paraffin blocks from which 5 micron-thick sections were obtained. Sections were stained with H&E dye and examined for pathological changes under light microscope by a pathologist blind to the specimens.

[5] = AIA rats, Silybin 200 mg/kg oral, day 42
[6] = MCD diet NASH mice, versus vehicle treated MCD diet model group

Structure (SMILES): COc1cc([C@H]2Oc3cc([C@H]4Oc5cc(O)cc(O)c5C(=O)[C@@H]4O)ccc3O[C@@H]2CO)ccc1O (stereo in doubt) [Silybin]
- ESR (AIA rats [1]; AIA rats, Silybin 100 mg/kg oral daily): 34.35 ± 9.25 mm
- ESR (AIA rats [1]; AIA rats, Silybin 200 mg/kg oral daily): significantly (P<0.001) reduced
- ESR (AIA rats [1]; AIA rats, Silybin 200 mg/kg oral daily, listed as SB): 28.09 ± 11.14 mm
- arthritis score (AIA rats [1]; [5]): 7.60
- paw volume (AIA rats [1]; [5]): 3.02 mL
- relative organ weight ratio (such as liver index, spleen index, kidney index, lung index) (AIA rats [1]; rat, in vivo): reversed changes
- body weight ([2]; MCD diet NASH mice, Silybin 300 mg/kg): no effect
- liver/body weight ratio ([2]; MCD diet NASH mice, Silybin 300 mg/kg, P<0.05): moderate decrease
- scores of steatosis, inflammation and ballooning ([2]; MCD diet NASH mice, Silybin treated versus MCD diet group, P<0.01): lower scores
- cytokines levels [2, 6]: significantly restored
- lipid profiles [2, 6]: significantly restored
- oxidative stress levels [2, 6]: significantly restored
- serum transaminase [2, 6]: significantly restored
- Ballooning (histological score) ([2]; Silybin 150 mg/kg oral): 0.96 ± 0.04
- Inflammation (histological score) ([2]; Silybin 150 mg/kg oral): 0.92 ± 0.10
- Steatosis (histological score) ([2]; Silybin 150 mg/kg oral): 1.00 ± 0
- Ballooning (histological score) ([2]; Silybin 300 mg/kg oral): 0.83 ± 0.09
- Inflammation (histological score) ([2]; Silybin 300 mg/kg oral): 0.88 ± 0.12
- Steatosis (histological score) ([2]; Silybin 300 mg/kg oral): 0.92 ± 0.13
- cartilage and joint destruction of the arthritic joints (radiographs) (AIA rats [3]; Silybin 100 mg/kg or 200 mg/kg, day 42): ameliorated
- infiltration of inflammatory cells, synovial hyperplasia (AIA rats [3]; ankle joint sections, H&E): diminished
- histological grade of representative ankle joint sections (AIA rats [3]; day 42, H&E, FIG. 2C (MTX; Silybin 200 mg/kg), vehicle-treated AIA grade 2/3): 0
- histopathological assessment of liver tissue (AIA rats [4]; H&E liver sections): preserved the normal architecture of hepatocytes with light congestion of central vein
- dyslipidemia (serum lipid profile) (AIA rats [4]; Silybin 200 mg/kg): successfully improved
- ALP level (AIA rats [4]; Silybin 200 mg/kg, P<0.001): markedly reduced
- AST level (AIA rats [4]; Silybin 200 mg/kg, P<0.05): markedly reduced
